Patent US10246448B2, “4-hydroxy-2-phenyl-1,3-thiazol-5-yl methanone derivatives as TRPM8 antagonists” (DOMPÉ FARMACEUTICI S.P.A., priority 2015, dated 2019)

Assays:
[1] = Metabolic stability in rat microsomes, Phase I assay; format: in vitro ADME; settings: for half-life at 1 μM: pH 7.4, rat liver microsomes 0.5 mg/ml, compound 1 μM, NADP cofactors mixture, 37° C., read-out: Metabolic Stability (t1/2, min) Phase1; for intrinsic clearance half-life (in words): metabolic stability in rat microsomes
Method: Compounds 1, 2, 8 and 9 in duplicate were dissolved in DMSO and pre-incubated, at the final concentration of 1 μM, for 10 min at 37° C. in potassium phosphate buffer 50 mM pH 7.4, 3 mM MgCl2, with rat liver microsomes (Xenotech) at the final concentration of 0.5 mg/ml.
After the pre-incubation period, reactions were started by adding the cofactors mixture (NADP, Glc6P, Glc6P-DH in 2% Sodium bicarbonte); samples (50 μl) were taken at time 0, 10, 20, 30 and 60 min added to 150 μl of acetonitrile with Verapamil 0.02 μM as Internal Standard (IS) to stop the reaction. After centrifugation the supernatants were analysed by LC-MS/MS.
A control sample without cofactors was added in order to check the stability of test compounds in the matrix after 60 min. 7-Ethoxycoumarin and propranolol were added as reference standards.

human TRPM8 [2] = target: T1, human TRPM8 (Homo sapiens, UniProt Q7Z2W7); assay: In vitro TRPM8 assay: intracellular calcium levels, Ca2+ sensitive fluorescent dye (FLIPR), agonist Icilin or Cooling Agent 10; format: cell-based; parameters: expressed in transfected cells; settings: HEK-293 cells stably expressing human TRPM8
T1 sequence (Q7Z2W7 whole entry): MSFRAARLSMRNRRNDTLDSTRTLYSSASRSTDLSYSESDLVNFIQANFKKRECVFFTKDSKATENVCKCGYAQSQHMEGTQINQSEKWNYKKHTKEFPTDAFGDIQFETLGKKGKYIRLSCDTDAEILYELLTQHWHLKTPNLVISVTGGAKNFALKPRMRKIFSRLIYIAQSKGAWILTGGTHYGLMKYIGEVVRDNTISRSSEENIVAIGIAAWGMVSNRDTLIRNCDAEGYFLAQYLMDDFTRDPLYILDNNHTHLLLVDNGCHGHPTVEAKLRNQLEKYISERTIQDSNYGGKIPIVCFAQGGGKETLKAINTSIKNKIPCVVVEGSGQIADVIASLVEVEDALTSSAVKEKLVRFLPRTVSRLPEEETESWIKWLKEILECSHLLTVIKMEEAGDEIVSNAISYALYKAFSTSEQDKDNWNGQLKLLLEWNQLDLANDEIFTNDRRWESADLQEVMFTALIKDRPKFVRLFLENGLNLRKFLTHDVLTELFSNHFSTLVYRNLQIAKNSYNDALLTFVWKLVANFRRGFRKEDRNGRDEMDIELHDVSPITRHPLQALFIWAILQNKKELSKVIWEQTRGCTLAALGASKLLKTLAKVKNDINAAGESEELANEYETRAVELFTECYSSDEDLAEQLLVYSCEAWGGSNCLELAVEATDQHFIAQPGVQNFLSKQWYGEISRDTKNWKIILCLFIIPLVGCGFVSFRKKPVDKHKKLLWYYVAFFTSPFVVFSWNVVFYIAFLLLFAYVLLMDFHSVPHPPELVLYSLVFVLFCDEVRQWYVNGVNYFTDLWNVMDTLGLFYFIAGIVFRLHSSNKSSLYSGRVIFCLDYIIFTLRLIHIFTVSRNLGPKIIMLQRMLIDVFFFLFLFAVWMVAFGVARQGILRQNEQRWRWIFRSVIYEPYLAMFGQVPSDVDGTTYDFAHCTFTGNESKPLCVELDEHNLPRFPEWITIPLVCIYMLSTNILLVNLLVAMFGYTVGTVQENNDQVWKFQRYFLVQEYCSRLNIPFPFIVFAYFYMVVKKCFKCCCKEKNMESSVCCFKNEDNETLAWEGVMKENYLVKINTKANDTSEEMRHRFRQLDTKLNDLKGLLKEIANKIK
Method: The TRPM8 antagonistic activity of all 26 compounds was determined by measuring changes in intracellular calcium levels using a Ca^+2 sensitive fluorescent dye. The experiments were performed using HEK-293 cells stably expressing the human TRPM8. Cells were seeded 10000 cells/well in 384 plates coated by Poly-D-Lysine MATRIX black/clear bottom (Thermo Scientific, Waltham, Mass. USA) in complete medium and grown overnight at 37° C., 5% CO2. 24 h after seeding, cell culture media was removed, cells were washed with Tyrode's assay buffer and then loaded with the fluorescent Ca^+2 indicator Fluo-4 NW dye (Molecular Probes, Life Technologies, Paisley, UK) supplemented with water-soluble Probenecid (Molecular Probes). Dye loaded cell plates were incubated for 1 h at room temperature. The compounds or vehicle were added and the kinetic response was monitored by a fluorimetric imaging plate ([…]; Molecular Devices, Sunnyvale, Calif., USA) over a period of five minutes (300 seconds). A second injection 5 minutes later of the reference agonist Cooling Agent 10 or Icilin at EC80 concentration was performed. The signal of the emitted fluorescence was recorded during additional three minutes. Data were analyzed by Spotfire DecisionSite version 9.1.1. The bioactivity exerted by the compounds or vehicle was expressed as a percent inhibition and IC50 values were then calculated.

human TRPM8 [3] = target: T1, human TRPM8; assay: In vitro cold stimulation assay
Method: The TRPM8 antagonisticic activity of all 26 compounds was determined in an in vitro cold stimulation assay.
3-4 days after seeding (˜80% confluent cells), the medium was removed and cells were loaded by a solution of Screen Quest™ Fluo-8 NW dye (ABS Bioquest, Sunnyvale, Calif., USA) in the dark. Dye-loaded cell flasks were incubated for 45 minutes at room temperature in the dark and the Fluo-8 NW solution was then removed and cells were seeded in the 96 Assay Plates (MicroAmp™ Optical 96-Well Reaction Plates; Applied Biosystems, Life technologies) at 100,000 cells/'well (20 μl/well). […] All data point determinations were performed in duplicate before a mean value was calculated, including error bars representing the standard error of the mean.

[4] = Metabolic stability in rat microsomes, Phase II assay; format: in vitro ADME; settings: pH 7.4; rat liver microsomes 0.5 mg/mL, Alamethicin activated, UDPGA, compound 1 μM, 37° C.; read-out: Metabolic Stability (t1/2, min) Phase2
Method: Rat liver microsomes (0.5 mg/mL final conc.) were incubated in ice for 15 min in 50 mM potassium phosphate buffer pH 7.4, 3 mM MgCl2 and activated with Alamethicin 50 μg/mg microsomal protein. Samples were transferred at 37° C. and compounds 1, 2, 8 and 9, dissolved in DMSO, were added in duplicate at the final concentration of 1 μM. After 5 min, reaction is started by adding 25 μl of UDPGA (16.15 mg/ml in 0.2% Sodium Bicarbonate). Samples were taken at time 0, 10, 20, 30 and 60 min added to 150 μl of acetonitrile with Verapamil 0.02 uM as Internal Standard (IS) to stop the reaction. After centrifugation the supernatants were analysed by LC-MS/MS. 7-Hydroxycoumarin was added as reference standard.

[5] = agonist Cooling Agent 10 at EC80, read-out: Ca2+ (IC50 μM) Cool 10
[6] = agonist Icilin at EC80, read-out: Ca2+ (IC50 μM) Icilin

SMILES | half-life at 1 μM [1] | IC50 (human TRPM8 [2]; [5]) | IC50 (human TRPM8 [2]; [6]) | IC50 (human TRPM8 [3]) | half-life at 1 μM [4] | intrinsic clearance half-life (in words) [1]
O=C(c1cccnc1)c1sc(-c2cccc(F)c2)nc1O [Example 23, [2-(3-fluorophenyl)-4-hydroxy-1,3-thiazol-5-yl](pyridin-3-yl)methanone] | 52 min | 0.621 µM | 0.695 µM | 0.578 µM | 51 min | –
O=C(c1cccs1)c1sc(-c2cccc(F)c2)nc1O [Example 20, [2-(3-fluorophenyl)-4-hydroxy-1,3-thiazol-5-yl](thiophen-2-yl)methanone] | 68 min | 0.96 µM | 1.11 µM | 1.38 µM | 59 min | –
O=C(c1sc(-c2cccc(F)c2)nc1O)N1CC2CCCC2O1 (stereo not shown) [Example 30, [2-(3-fluorophenyl)-4-hydroxy-1,3-thiazol-5-yl](hexahydro-2H-cyclopenta[d][1,2]oxazol-2-yl)methanone] | 82 min | 0.084 µM | 0.087 µM | 0.069 µM | 85 min | –
O=C(c1sc(-c2ccccc2O)nc1O)N1CCCO1 [Example 2, [4-hydroxy-2-(2-hydroxyphenyl)-1,3-thiazol-5-yl](1,2-oxazolidin-2-yl)methanone] | 97 min | 0.011 µM | 0.012 µM | 0.0055 µM | 86 min | highest intrinsic clearance half-life
O=C(c1sc(-c2cccc(F)c2)nc1O)N1CCCCC1 [Example 14, [2-(3-fluorophenyl)-4-hydroxy-1,3-thiazol-5-yl](piperidin-1-yl)methanone] | 67 min | 1.51 µM | 1.47 µM | 0.985 µM | 65 min | –
O=C(c1ccco1)c1sc(-c2cccc(F)c2)nc1O [Example 19, [2-(3-fluorophenyl)-4-hydroxy-1,3-thiazol-5-yl](furan-2-yl)methanone] | 42 min | 1.17 µM | 1.15 µM | 1.78 µM | 21 min | –
O=C(c1sc(-c2cccc(F)c2)nc1O)n1cccn1 [Example 26, [2-(3-fluorophenyl)-4-hydroxy-1,3-thiazol-5-yl](1H-pyrazol-1-yl)methanone] | 89 min | 1.65 µM | 1.32 µM | 1.32 µM | 86 min | –
O=C(c1sc(-c2ccccc2O)nc1O)N1CCOCC1 [Example 13, [4-hydroxy-2-(2-hydroxyphenyl)-1,3-thiazol-5-yl](morpholin-4-yl)methanone] | 78 min | 1.12 µM | 1.22 µM | 0.752 µM | 36 min | –
O=C(c1sc(-c2ccccc2O)nc1O)N1CCCOC1 [Example 11, [4-hydroxy-2-(2-hydroxyphenyl)-1,3-thiazol-5-yl](1,3-oxazinan-3-yl)methanone] | 51 min | 0.281 µM | 0.256 µM | 0.106 µM | 50 min | –
O=C(c1sc(-c2ccccc2O)nc1O)C1CCCO1 (stereo not shown) [Example 6, [4-hydroxy-2-(2-hydroxyphenyl)-1,3-thiazol-5-yl](oxolan-2-yl)methanone] | 56 min | 0.401 µM | 0.452 µM | 0.23 µM | 33 min | –
O=C(c1ccccn1)c1sc(-c2cccc(F)c2)nc1O [Example 22, [2-(3-fluorophenyl)-4-hydroxy-1,3-thiazol-5-yl](pyridin-2-yl)methanone] | 52 min | 0.523 µM | 0.54 µM | 0.478 µM | 55 min | –
O=C(c1ccncc1)c1sc(-c2cccc(F)c2)nc1O [Example 24, [2-(3-fluorophenyl)-4-hydroxy-1,3-thiazol-5-yl](pyridin-4-yl)methanone] | 40 min | 0.601 µM | 0.624 µM | 0.525 µM | 48 min | –
Cn1cccc1C(=O)c1sc(-c2cccc(F)c2)nc1O [Example 18, [2-(3-fluorophenyl)-4-hydroxy-1,3-thiazol-5-yl](1-methyl-1H-pyrrol-2-yl)methanone] | 78 min | 1.08 µM | 1.09 µM | 1.45 µM | 55 min | –
O=C(c1sc(-c2cccc(F)c2)nc1O)N1CCCC1 [Example 7, [2-(3-fluorophenyl)-4-hydroxy-1,3-thiazol-5-yl](pyrrolidin-1-yl)methanone] | 46 min | 1.36 µM | 1.56 µM | 1.23 µM | 51 min | –
CN1CCCC1C(=O)c1sc(-c2cccc(F)c2)nc1O (stereo not shown) [Example 16, [2-(3-fluorophenyl)-4-hydroxy-1,3-thiazol-5-yl](1-methylpyrrolidin-2-yl)methanone] | 32 min | 1.34 µM | 1.36 µM | 1.01 µM | 34 min | –
O=C(c1sc(-c2cccc(F)c2)nc1O)N1CCOCC1 [Example 12, [2-(3-fluorophenyl)-4-hydroxy-1,3-thiazol-5-yl](morpholin-4-yl)methanone] | 54 min | 0.963 µM | 1.21 µM | 0.853 µM | 32 min | –
O=C(c1sc(-c2cccc(F)c2)nc1O)n1ccnn1 [Example 31, [2-(3-fluorophenyl)-4-hydroxy-1,3-thiazol-5-yl](1H-1,2,3-triazol-1-yl)methanone] | 85 min | 0.94 µM | 0.082 µM | 0.05 µM | 67 min | –
O=C(c1sc(-c2ccccc2O)nc1O)N1CCOC1 [Example 4, [4-hydroxy-2-(2-hydroxyphenyl)-1,3-thiazol-5-yl](1,3-oxazolidin-3-yl)methanone] | 64 min | 0.104 µM | 0.122 µM | 0.039 µM | 41 min | –
CC1CCN(C(=O)c2sc(-c3cccc(F)c3)nc2O)O1 (stereo not shown) [Example 29, [2-(3-fluorophenyl)-4-hydroxy-1,3-thiazol-5-yl](5-methyl-1,2-oxazolidin-2-yl) methanone] | 91 min | 0.091 µM | 0.111 µM | 0.031 µM | 78 min | –
O=C(c1sc(-c2cccc(F)c2)nc1O)N1CC2(CC2)CO1 [Example 28, [2-(3-fluorophenyl)-4-hydroxy-1,3-thiazol-5-yl](5-oxa-6-azaspiro[2.4]heptan-6-yl) methanone] | 73 min | 0.086 µM | 0.143 µM | 0.054 µM | 61 min | –
O=C(c1sc(-c2cccc(F)c2)nc1O)N1CCCO1 [Example 1, [2-(3-fluorophenyl)-4-hydroxy-1,3-thiazol-5-yl](1,2-oxazolidin-2-yl)methanone] | 185 min | – | – | – | 120 min | highest intrinsic clearance half-life
O=C(c1sc(-c2ccccc2O)nc1O)N1CCCCO1 [Example 8, [4-hydroxy-2-(2-hydroxyphenyl)-1,3-thiazol-5-yl](1,2-oxazinan-2-yl)methanone] | 102 min | – | – | – | 43 min | highest intrinsic clearance half-life
O=C(c1sc(-c2cccc(F)c2)nc1O)N1CCOC1 [Example 3, [2-(3-fluorophenyl)-4-hydroxy-1,3-thiazol-5-yl](1,3-oxazolidin-3-yl)methanone] | 78 min | – | – | – | 55 min | –
